# Measured values from ChEMBL document CHEMBL1146354, “Synthesis, cytotoxicity, and DNA topoisomerase II inhibitory activity of benzofuroquinolinediones” (Bioorg Med Chem, 2007).
# Key:
# SK-OV-3 = assay: Cytotoxicity against human SK-OV-3 cells by SRB assay; type: functional, cell-based
# Homo sapiens [1] = species: Homo sapiens; assay: Inhibition of human topoisomerase 2-mediated KDNA decatenation activity at 5 uM after 10 mins relative to control
# XF498 = assay: Cytotoxicity against human XF498 cells by SRB assay; type: functional, cell-based
# HT-1080 = assay: Cytotoxicity against human HT1080 cells by SRB assay; type: functional, cell-based
# SNU-638 = assay: Cytotoxicity against human SNU638 cells by SRB assay; type: functional, cell-based
# SK-MEL-2 = assay: Cytotoxicity against human SK-MEL-2 cells by SRB assay; type: functional, cell-based
# [2] = target: T1, DNA topoisomerase 1 (Homo sapiens) (UniProt P11387); assay: Inhibition of human topoisomerase 1-mediated DNA relaxation activity at 5 uM after 10 mins relative to control
# T1 sequence (whole entry): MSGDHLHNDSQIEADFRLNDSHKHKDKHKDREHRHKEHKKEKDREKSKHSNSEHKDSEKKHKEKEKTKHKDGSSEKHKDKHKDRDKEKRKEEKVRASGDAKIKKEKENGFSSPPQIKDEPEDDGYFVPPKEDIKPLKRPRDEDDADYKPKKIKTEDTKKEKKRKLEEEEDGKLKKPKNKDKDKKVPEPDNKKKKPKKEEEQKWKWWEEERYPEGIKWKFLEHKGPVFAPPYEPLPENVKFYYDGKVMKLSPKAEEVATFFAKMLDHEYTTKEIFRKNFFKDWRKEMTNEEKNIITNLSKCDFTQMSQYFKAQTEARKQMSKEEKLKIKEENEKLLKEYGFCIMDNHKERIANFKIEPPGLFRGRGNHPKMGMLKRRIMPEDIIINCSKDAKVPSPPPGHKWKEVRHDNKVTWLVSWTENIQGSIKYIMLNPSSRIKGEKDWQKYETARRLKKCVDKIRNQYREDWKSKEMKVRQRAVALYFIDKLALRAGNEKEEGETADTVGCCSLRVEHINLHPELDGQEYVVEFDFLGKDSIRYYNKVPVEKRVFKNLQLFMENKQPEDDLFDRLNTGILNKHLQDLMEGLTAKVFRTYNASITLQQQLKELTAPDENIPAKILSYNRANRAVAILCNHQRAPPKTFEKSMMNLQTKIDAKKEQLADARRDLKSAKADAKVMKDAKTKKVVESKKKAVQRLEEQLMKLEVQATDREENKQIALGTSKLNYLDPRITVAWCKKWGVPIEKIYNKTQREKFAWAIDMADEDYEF
# A549 = assay: Cytotoxicity against human A549 cells by SRB assay; type: functional, cell-based
# HCT-116 = assay: Cytotoxicity against human HCT116 cells by SRB assay; type: functional, cell-based
# HL-60 = assay: Cytotoxicity against human HL60 cells by SRB assay; type: functional, cell-based
# [3] = Inhibition of human topoisomerase 2 […]
# Homo sapiens [4] = species: Homo sapiens; assay: Inhibition of human topoisomerase 2-mediated KDNA decatenation activity at 200 uM after 10 mins relative to control
# DNA topoisomerase 1 = target: T2, DNA topoisomerase 1 (Homo sapiens, UniProt P11387); assay: Inhibition of human topoisomerase 1 […]
# T2 sequence (P11387 whole entry): T1 sequence (whole entry)
Structure (SMILES),inhibition (Homo sapiens [1]) [%],inhibition [2] [%],IC50 [3] [nM],inhibition (Homo sapiens [4]) [%],IC50 (DNA topoisomerase 1) [nM],IC50 (SK-OV-3) [nM],IC50 (XF498) [nM],IC50 (HT-1080) [nM],IC50 (SNU-638) [nM],IC50 (SK-MEL-2) [nM],IC50 (A549) [nM],IC50 (HCT-116) [nM],IC50 (HL-60) [nM]
COc1cc([C@@H]2c3cc4c(cc3[C@@H](O[C@@H]3O[C@@H]5CO[C@@H](C)O[C@H]5[C@H](O)[C@H]3O)[C@H]3COC(=O)[C@H]23)OCO4)cc(OC)c1O [ETOPOSIDE],,,78400,89,,,,,,,,1870,370
CCN(CC)CCOc1ccc2c3c(oc2c1)C(=O)c1ncccc1C3=O,100,0,680,,64300,270,140,70,140,160,50,60,250
CC(COc1ccc2c3c(oc2c1)C(=O)c1ccccc1C3=O)N(C)C (centres undefined),100,14,1190,,42000,19000,4690,340,840,2150,210,2200,390
CCN(CC)CCOc1ccc2c3c(oc2c1)C(=O)c1ccccc1C3=O,91,12,,,,> 20000,> 20000,2190,3110,> 20000,1090,1680,650
COc1cccc2c1C(=O)c1c(O)c3c(c(O)c1C2=O)C[C@@](O)(C(=O)CO)C[C@@H]3O[C@H]1C[C@H](N)[C@H](O)[C@H](C)O1 [DOXORUBICIN],78,,2670,,,290,40,60,60,70,150,620,40
CC(C)N(CCOc1ccc2c3c(oc2c1)C(=O)c1ncccc1C3=O)C(C)C,71,0,,,,1020,940,180,450,940,370,180,80
CC(C)N(CCOc1ccc2c3c(oc2c1)C(=O)c1ccccc1C3=O)C(C)C,36,10,,,,3550,3170,1020,2570,1530,2010,1390,1110
CCN(CC)CCOc1cc2oc3c(c2cc1Cl)C(=O)c1ccccc1C3=O,50,19,,,,> 20000,> 20000,2730,2770,5730,1590,1520,2270

# Now from value to compound, other results behind:
inhibition (Homo sapiens [1]) [%],inhibition [2] [%],IC50 [3] [nM],inhibition (Homo sapiens [4]) [%],IC50 (DNA topoisomerase 1) [nM],Structure (SMILES),IC50 (SK-OV-3) [nM],IC50 (XF498) [nM],IC50 (HT-1080) [nM],IC50 (SNU-638) [nM],IC50 (SK-MEL-2) [nM],IC50 (A549) [nM],IC50 (HCT-116) [nM],IC50 (HL-60) [nM]
59,14,,,,CC(C)N(CCOc1cc2oc3c(c2cc1Cl)C(=O)c1ccccc1C3=O)C(C)C,> 20000,> 20000,> 20000,> 20000,> 20000,> 20000,> 20000,> 20000
59,0,,,,CC(COc1cc2oc3c(c2cc1Cl)C(=O)c1cccnc1C3=O)N(C)C (centres undefined),150,140,110,180,140,90,140,220
88,6,,,,CC(CN(C)C)Oc1cc2oc3c(c2cc1Cl)C(=O)c1ccccc1C3=O (centres undefined),550,550,490,100,340,620,420,670
68,0,,,,CC(COc1cc2oc3c(c2cc1Cl)C(=O)c1ccccc1C3=O)N(C)C (centres undefined),650,550,650,1140,500,450,340,630
67,0,,,,CC(COc1ccc2c3c(oc2c1)C(=O)c1ncccc1C3=O)N(C)C (centres undefined),80,100,60,110,90,20,70,180
35,0,,,,CC(C)N(CCOc1cc2oc3c(c2cc1Cl)C(=O)c1cccnc1C3=O)C(C)C,750,910,220,530,730,180,410,700
84,12,,,59500,CC(CN(C)C)Oc1ccc2c3c(oc2c1)C(=O)c1ccccc1C3=O (centres undefined),2260,1750,270,880,1520,370,270,250
24,0,,,,CC(CN(C)C)Oc1ccc2c3c(oc2c1)C(=O)c1ncccc1C3=O (centres undefined),150,120,170,140,150,60,80,90
47,0,,,,CCN(CC)CCOc1cc2oc3c(c2cc1Cl)C(=O)c1cccnc1C3=O,250,400,150,140,240,90,130,310
11,0,,,,CC(CN(C)C)Oc1cc2oc3c(c2cc1Cl)C(=O)c1cccnc1C3=O (centres undefined),150,170,100,100,150,100,130,60
